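Protocol summary: plate cells (96-well), add compound at 5 concentrations, incubate 48 h, interpolate endpoints linearly. GI50 is the concentration that inhibits growth by half. TGI is the concentration that stops growth completely.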
Key:
Experiment in all cases: NCI tumour cell line growth inhibition, 48 h
XF 498 CNS = tested on: XF 498 CNS
RXF-631 renal = tested on: RXF-631 renal
HOP-18 NSCLC = tested on: HOP-18 NSCLC
SNB-78 CNS = tested on: SNB-78 CNS
DMS 114 small cell lung = tested on: DMS 114 small cell lung
DMS 273 small cell lung = tested on: DMS 273 small cell lung
LXFL 529 NSCLC = tested on: LXFL 529 NSCLC
P388 leukemia = tested on: P388 leukemia
P388/ADR leukemia = tested on: P388/ADR leukemia
SN12K1 renal = tested on: SN12K1 renal

CCN(CC)c1ccc(N=C2C=C(Cl)C(=O)c3ncccc32)c(C)c1
TGI (XF 498 CNS): 18.7 µM
TGI (RXF-631 renal): 35.3 µM
TGI (HOP-18 NSCLC): 9.75 µM
TGI (SNB-78 CNS): 43.4 µM
TGI (DMS 114 small cell lung): 8.19 µM
TGI (DMS 273 small cell lung): 16.8 µM

CC1[C@@H]2CC=C3[C@H]4CCC5Cc6nc7c(nc6C[C@@]5(C)C4(O)CC(=O)[C@]32CO[C@]12OC(C)(C)CC2O)CC1CC[C@@H]2C3=C[C@H]4O[C@@]5(O[C@@](C)(CO)C[C@@H]5O)C(C)[C@@]4(O)[C@]3(C)[C@@H](O)CC2[C@]1(C)C7 (stereo partly drawn)
TGI (XF 498 CNS): 0.256 µM
GI50 (LXFL 529 NSCLC): 0.000139 µM
TGI (LXFL 529 NSCLC): 0.000387 µM
TGI (HOP-18 NSCLC): > 3.6 µM
TGI (P388 leukemia): 0.00382 µM
TGI (P388/ADR leukemia): 0.379 µM
GI50 (DMS 114 small cell lung): 0.000367 µM
TGI (SN12K1 renal): > 3.6 µM
GI50 (DMS 273 small cell lung): 0.00036 µM

S=c1sc2cscc2s1
TGI (XF 498 CNS): 49.9 µM
TGI (LXFL 529 NSCLC): 38.6 µM
TGI (RXF-631 renal): 61 µM
TGI (HOP-18 NSCLC): 67.2 µM
TGI (SNB-78 CNS): > 100 µM
TGI (DMS 114 small cell lung): 45.2 µM
TGI (DMS 273 small cell lung): > 100 µM

Cc1ccc(C2=C(c3ccc(C)cc3)C(c3ccc(C)cc3)=C(c3ccc(C)cc3)C2=O)cc1
TGI (XF 498 CNS): > 100 µM
TGI (LXFL 529 NSCLC): > 100 µM
TGI (RXF-631 renal): > 100 µM
TGI (HOP-18 NSCLC): > 100 µM
TGI (SNB-78 CNS): > 100 µM

Cc1ccccc1C(=O)Oc1ccc(OCc2ccccc2)cc1
TGI (XF 498 CNS): > 100 µM
TGI (LXFL 529 NSCLC): > 100 µM
TGI (HOP-18 NSCLC): > 100 µM
TGI (SNB-78 CNS): > 100 µM
TGI (DMS 114 small cell lung): > 100 µM
TGI (DMS 273 small cell lung): > 100 µM

O=C1C(=O)N(c2nccs2)C(=O)C(=O)C1c1nc2ccccc2s1
TGI (XF 498 CNS): > 100 µM
TGI (LXFL 529 NSCLC): > 100 µM
TGI (HOP-18 NSCLC): > 100 µM
TGI (SNB-78 CNS): > 100 µM
TGI (DMS 114 small cell lung): > 100 µM
TGI (DMS 273 small cell lung): > 100 µM

O=C(Nc1ccc(Br)cc1)C(=O)C(C(=O)c1ccccc1F)C1OC(=O)c2ccccc21 (stereo not drawn)
TGI (LXFL 529 NSCLC): 89.5 µM
TGI (RXF-631 renal): > 100 µM
TGI (HOP-18 NSCLC): > 100 µM
TGI (SNB-78 CNS): 72.6 µM
TGI (DMS 114 small cell lung): 62.8 µM
TGI (DMS 273 small cell lung): > 100 µM

NCc1c(C(N)=O)ncn1Cc1ccccc1
TGI (XF 498 CNS): > 100 µM
TGI (LXFL 529 NSCLC): > 100 µM
TGI (HOP-18 NSCLC): > 100 µM
TGI (SNB-78 CNS): > 100 µM
TGI (DMS 114 small cell lung): > 100 µM
TGI (DMS 273 small cell lung): > 100 µM

COc1ccc2c(CCNC(=O)/C=C/c3ccccc3)c(C(C)=O)[nH]c2c1[N+](=O)[O-]
TGI (LXFL 529 NSCLC): > 100 µM
TGI (RXF-631 renal): 28.4 µM
TGI (SNB-78 CNS): > 100 µM
TGI (DMS 114 small cell lung): > 100 µM
TGI (DMS 273 small cell lung): 29.2 µM

O=C(N/C(=C\c1ccc(/C=C(\NC(=O)c2ccccc2)c2nc3ccccc3s2)cc1)c1nc2ccccc2s1)c1ccccc1
TGI (LXFL 529 NSCLC): 10.9 µM
TGI (RXF-631 renal): 20.6 µM
TGI (HOP-18 NSCLC): 26 µM
TGI (SNB-78 CNS): 62.3 µM
TGI (DMS 114 small cell lung): 25.9 µM
TGI (DMS 273 small cell lung): 10.8 µM

N#Cc1ccc(Oc2cccc(Oc3ccccc3)c2)cc1C#N
TGI (LXFL 529 NSCLC): > 100 µM
TGI (RXF-631 renal): > 100 µM
TGI (DMS 114 small cell lung): > 100 µM

C=C1CCCC2[C@](C)(CC3=C(O)C(=O)C=C(OC)C3=O)[C@@H](C)CC[C@]12C (stereo partly drawn)
TGI (XF 498 CNS): 56.7 µM
TGI (LXFL 529 NSCLC): 27.2 µM
TGI (RXF-631 renal): > 100 µM
TGI (HOP-18 NSCLC): 8.59 µM
TGI (DMS 114 small cell lung): 7.61 µM

O=C(Nc1nc2ccc([N+](=O)[O-])cc2s1)C(=O)C(C(=O)c1ccncc1)C1OC(=O)c2ccccc21 (stereo not drawn)
TGI (XF 498 CNS): > 100 µM
TGI (LXFL 529 NSCLC): > 100 µM
TGI (RXF-631 renal): > 100 µM
TGI (HOP-18 NSCLC): > 100 µM
TGI (SNB-78 CNS): > 100 µM
TGI (DMS 114 small cell lung): > 100 µM
TGI (DMS 273 small cell lung): > 100 µM

Cn1c(=O)c(C(=O)NC(=O)NCCCCCOC(=O)CCCCCCCCCCC(=O)OCCCCCNC(=O)NC(=O)c2cn(Cc3ccccc3)c(=O)n(C)c2=O)cn(Cc2ccccc2)c1=O
TGI (XF 498 CNS): > 100 µM
TGI (LXFL 529 NSCLC): > 100 µM
TGI (HOP-18 NSCLC): > 100 µM
TGI (SNB-78 CNS): > 100 µM
TGI (DMS 114 small cell lung): > 100 µM
TGI (DMS 273 small cell lung): > 100 µM
